Assay results reported in patent publication US10647680B2, “Urea compound, preparation method therefor and medical use thereof” (Ancureall Pharmaceutical (Shanghai) Co., Ltd., priority 2016, dated 2020).

Key:
Type in all cases: cell-based
[1] = test system: Kasumi-1 (c-Kit N822K mutant type); experiment: In vitro growth inhibition (GI50), Kasumi-1; conditions: Homo sapiens, Cell lines of leukemia, read-out: GI 50 Kasumi-1 Kit (N822K)
Outline: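 Cells in RPMI1640 with 10% FBS, seeded at 5–10×10^4 cells/mL, exposed next day to compound at 5,000 nM down to 0.01 nM (2- or 10-fold dilutions, ≤1% solvent) for 3–5 days at 37 °C. CCK8 absorbance at 450 nm, growth rate relative to pre-treatment and solvent controls, GI50 from concentration–growth curve.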

[2] = test system: ZR-75-30 (HER2/ErbB2 amp); experiment: In vitro growth inhibition (GI50), ZR-75-30; conditions: Homo sapiens
Description: (§1) Tumor cell line is an effective cell model for studying the inhibition of tumor cell growth or proliferation in vitro. In the present invention, a representative tumor cell line was selected to determine the cell growth inhibition activity of the present compound. All cell lines used were from ATCC, DSMZ, and the Cell Bank of the Chinese Academy of Sciences. Cell culture conditions and methods were in accordance with the requirements of each cell line. Cells were subcultured in vitro for no more than 3 passages each time, and as required, single-clone purification and identification of cell lines could be carried out.
(§2) The cell culture media used were RPMI1640 (Gibco), MEM (Gibco), McCOY'S5A (Gibco), and IMDM (Gibco). The complete medium was prepared by supplement with 5˜20% fetal calf serum (Gibco), 1% double-antibiotics (10000 units/mL penicillin and 10000 units/mL), 2 mM glutamine or 1 mM sodium pyruvate, respectively.
(§3) Human gastric cancer cell line NCI-N87 (HER2/ErbB2 amp, ATCC), human breast cancer cell line HCC1954 (HER2/ErbB2 amp, ATCC) and ZR-75-30 (HER2/ErbB2 amp, ATCC), human adenocarcinoma cell line AU565 (HER2/ErbB2 amp, ATCC), human lung squamous cell carcinoma cell line NCI-H2170 (HER2/ErbB2 amp, ATCC), human bronchioalveolar adenocarcinoma cell line NCI-H1781 (HER2/ErbB2 Ins G776V,C mutant type, ATCC) were cultured with a 1×RPMI1640 complete medium (10% FBS), respectively. Human lung adenocarcinoma cell line Calu-3 (HER2/ErbB2 amp, ATCC) was cultured with 1×MEM, 10% FBS, 1% double antibody, 1% NEAA (Gibco), 2 mM glutamine and 1 mM sodium pyruvate. The human breast cancer cell line SK-BR-3 (HER2/ErbB2 amp, ATCC) was cultured with a McCOY'S5A complete medium (10% FBS).
(§4) Adherent cells were digested with 0.25% pancreatin-EDTA (Gibco). The suspension cells were collected by centrifugation. The supernatant was discarded and the cell pellet was resuspended and counted. Different cell concentrations (5˜10×10^4 cells/mL) were prepared according to the growth cycle of each cell line and then seeded on a 96-well plate (Corning), 100 μL/well. The cells were incubated overnight at 37° C., 5% CO2. The compounds were added to the cells on the second day with 2 wells in parallel. The final concentration of organic solvent shall not exceed 1%. The cells were continually incubated for 3 to 5 days, and then subjected to MTT assay.
(§5) The compound of the present invention and the control compound were dissolved in DMSO (Sigma) respectively, with the purity of more than 98%. The compound was stored in a concentration of 10 mM at −20° C. and diluted to 2- or 10-fold series prior to use.
(§6) Dojindo CCK8 reagent kit was used as MTT assay. THERMO […] FC meter was used as microplate reader.
(§7) For adherent cells, culture medium was removed and immediately replaced with the fresh prepared medium which contains 10% CCK8 reagent (100 μL/well). For the suspension cells, CCK8 was directly added to 10% of the final concentration. The cells were continually incubated for 1˜4 h. When a dark yellow color could be observed in the solvent control wells, the absorbance value at OD450 nm was measured and the cell growth rate was calculated according to the following formula: Cell Growth Rate (%)=100*(T−T0)/(C−T0) T=optical density of drug treatment cell well—optical density of blank control well; T0=optical density of cell well before drug treatment—optical density of blank control well; C=optical density of cell well of solvent control group—optical density of blank control well. The concentration value of 50% inhibition of cell growth (GI50) was calculated according to the drug concentration and cell growth rate curve. The experiment was independently repeated 1˜3 times, and subject to biological statistical analysis. 4. Experimental Results
(§8) Tumor cell growth inhibition test was performed by selecting representative compounds (compounds 4, 11, 12, 16, 27, 68, 71, 77, 79, 89 and 116 of the present invention). […]

[3] = test system: AU565 (HER2/ErbB2 amp); experiment: In vitro growth inhibition (GI50), AU565; conditions: Homo sapiens
Description: as §1, §2, §3, §4, §5, §6, §7, §8

SMILES | GI50 [1] [nM] | GI50 [2] [nM] | GI50 [3] [nM]
CC(C)(C)c1cc(NC(=O)Nc2ccc(-n3cnc4cc(OCCO)ccc43)cc2)[nH]n1 [Compound 79, 1-(5-tert-butyl-2H-pyrazol-3-yl)-3-{4-[5-(2-hydroxy-ethoxyl)-benzimidazol-1-yl]-phenyl]urea] | > 1000 | > 2500 | > 2500
COCCOc1ccc2c(c1)ncn2-c1ccc(NC(=O)Nc2cc(C(C)(C)C)n[nH]2)cc1 [Compound 77, 1-(5-tert-butyl-2H-pyrazol-3-yl)-3-{4-[5-(2-methoxyl-ethoxyl)-benzimidazol-1-yl]-phenyl}-urea] | > 1000 | > 2500 | > 2500
CC(C)(C)c1cc(NC(=O)Nc2ccc(-n3cnc4cc(OCCN5CCOCC5)ccc43)cc2)[nH]n1 [Compound 89, 1-(5-tert-butyl-2H-pyrazol-3-yl)-3-{4-[5-(2-morpholin-4-yl-ethoxyl)-benzimidazol-1-yl]-phenyl}-urea] | 100 to 1000 | > 2500 | > 2500
CC(C)(C)c1cc(NC(=O)Nc2ccc(-n3cnc4cc(O)ccc43)cc2)no1 [Compound 4, 1-(5-tert-butyl-isoxazol-3-yl)-3-[4-(5-hydroxy-benzimidazol-1-yl)-phenyl]-urea] | 100 to 1000 | > 2500 | > 2500
CC(C)(C)c1cc(NC(=O)Nc2ccc(-n3cnc4ccccc43)cc2)[nH]n1 [Compound 68, 1-(4-benzimidazol-1-yl-phenyl)-3-(5-tert-butyl-2H-pyrazol-3-yl)-urea] | > 1000 | > 2500 | > 2500
COc1ccc2c(c1)ncn2-c1ccc(NC(=O)Nc2cc(C(C)(C)C)n[nH]2)cc1 [Compound 71, 1-(5-tert-butyl-2H-pyrazol-3-yl)-3-[4-(5-methoxyl-benzimidazol-1-yl)-phenyl]-urea] | > 1000 | > 2500 | > 2500
CC(C)(C)c1cc(NC(=O)Nc2ccc(-n3cnc4cc(OCCN5CCOCC5)ccc43)cc2)no1 [Compound 16, 1-(5-tert-butyl-isoxazol-3-yl)-3-{4-[5-(2-morpholin-4-yl-ethoxyl)-benzimidazol-1-yl]-phenyl}-urea] | > 1000 | > 2500 | > 2500
CC(C)(C)c1cc(N)n(C(=O)Nc2ccc(-n3cnc4ccccc43)cc2)n1 [Compound 116, 5-amino-3-tert-butyl-pyrazol-1-carboxylic acid (4-benzimidazol-1-yl-phenyl)-amide] | > 1000 | > 2500 | > 2500
CC(C)(C)c1cc(NC(=O)Nc2ccc(-n3cnc4cc(OCCO)ccc43)cc2)no1 [Compound 11, 1-(5-tert-butyl-isoxazol-3-yl)-3-{4-[5-(2-hydroxy-ethoxyl)-benzimidazol-1-yl]-phenyl]-urea] | > 1000 | > 2500 | > 2500
CC(C)(C)c1cc(NC(=O)Nc2ccc(-n3cnc4ccc(OCCN5CCOCC5)cc43)cc2)no1 [Compound 27, 1-(5-tert-butyl-isoxazol-3-yl)-3-{4-[6-(2morpholin-4-yl-ethoxyl)-benzimidazol-1-yl]-phenyl}-urea] | > 1000 | > 2500 | > 2500
